Results taken from PMC9676923, “Characterization of relaxin 3 and its receptors in chicken: Evidence for relaxin 3 acting as a novel pituitary hormone” (Frontiers in Physiology, 2022).
Entries after “also recorded” stand apart in the source; their conditions may differ.

Tests used:
[1] = tested on: cRLN3 mRNA expression in cultured chicken pituitary cells; conditions: dihydrotestosterone 100 nM, 4 h/24 h; male chick pituitary cells; qPCR
Protocol: (§1) The primers (10 μM), dNTP (10 mM), easy Taq buffer, easy Taq DNA polymerase (TransGen Biotech), Eva Green (Biotium), MilliQ-H2O, and templates were mixed in a total volume of 20 μl. Then the reaction mix was conducted on the CFX96 Real-Time PCR Detection System (Bio-Rad). The amplification conditions included an initial denaturation for 10 min at 94°C followed by 20 s of denaturation at 94°C, 15 s annealing at 60°C, and 30 s extension at 72°C for 40 cycles.
To explore the regulatory effects of GnRH/CRH/E2/P4 on cRLN3, the anterior pituitaries isolated from 4-week-old female chicks were sliced and digested by 0.25% trypsin at 37°C for 20 min. The dispersed pituitary cells were cultured at a density of 5 × 10^5 cells/well in Medium 199 supplemented with 15% fetal bovine serum. Then, the medium was replaced with a serum-free M199 medium and the cells were incubated with GnRH (1–100 nM), CRH (0.1–10 nM), E2 (100 nM), and P4 (100 nM) for different duration times (4 h/24 h). […]
(§2) The relative mRNA levels of target genes were first calculated as the ratios to that of β-actin and then expressed as fold change (or the percentage) compared to their respective controls (chosen tissues). The data were analyzed by Student’s t-test (between two groups), or by one-way ANOVA followed by the Dunnett test in GraphPad Prism 7 (GraphPad Software, San Diego, CA).

[2] = tested on: cRLN3 mRNA expression in cultured chicken pituitary cells; experiment: cRLN3 mRNA expression (qPCR) in cultured pituitary cells of 4-week-old female chicks; format: cell-based
Protocol: as §1
To explore the regulatory effects of GnRH/CRH/E2/P4 on cRLN3, the anterior pituitaries isolated from 4-week-old female chicks were sliced and digested by 0.25% trypsin at 37°C for 20 min. The dispersed pituitary cells were cultured at a density of 5 × 10^5 cells/well in Medium 199 supplemented with 15% fetal bovine serum. Then, the medium was replaced with a serum-free M199 medium and the cells were incubated with GnRH (1–100 nM), CRH (0.1–10 nM), E2 (100 nM), and P4 (100 nM) for different duration times (4 h/24 h). […] The total RNA was then extracted from cultured pituitary cells and the expression of RLN3 and β-actin mRNA was assayed by qPCR.
as §2

[3] = target: chicken relaxin family peptide 1 receptor (cRXFP1) (chicken)
[4] = target: chicken relaxin family peptide 3 receptor (cRXFP3) (chicken)
CART = conditions: chicken pituitary, ref Cai et al., 2015, Mo et al., 2019; cited from earlier work
Text: Till present, a total of five genes (LHB, FSHB, GRP, CART, and RLN3) have been detected to be abundantly expressed in chicken pituitary gonadotrope cells ([Mo et al., 2017]; [Zhang et al., 2021]). Although these genes concentrate on the same cell cluster, these genes vary in sexual distribution patterns, cell co-localization profiles, and the hypothalamus regulation networks. For example, RLN3 and GRP show an abundance in female gonadotrope cells while LHB, FSHB, and CART show a higher expression in male pituitary cells. In addition, all cells expressing RLN3 overlap with the cells expressing ...

[5] = tested on: relaxin family peptide 2 receptor (RXFP2); conditions: ref Kumagai et al., 2002; Hsu et al., 2003; cited from earlier work
Text: As the typical member of the insulin superfamily, the RLNs bind their receptors to play their physiological roles. In mammals, RLN1 and RLN2 bind the relaxin family peptide 1 receptor (RXFP1) for downstream signaling ([Bathgate et al., 2013]). As their cognate receptor, RXFP1, which is also called the leucine-rich repeat-containing G-protein-coupled receptor 7 (LGR7), is capable of coupling to multiple G-proteins, thus triggering the pathways including cAMP accumulation ([Halls et al., 2006]; [Halls et al., 2007]; [Halls et al., 2009]), ERK1/2 phosphorylation, NO production, and other signalin ...

[6] = target: chicken relaxin family peptide 1 receptor (cRXFP1) (chicken); remark: listed apart in the source
cRXFP1 = experiment: pGL3-CRE-luciferase reporter (cAMP/PKA), HEK293 cells expressing cRXFP1; format: cell-based, chicken
Protocol: According to our previously established methods ([Liu et al., 2019]; [Jiang et al., 2022]), two cell-based luciferase reporter systems (pGL3-CRE-luciferase and pGL3-NFAT-RE-luciferase) were used to verify whether cRLN3cm is biologically active and capable of activating cRXFP1 and cRXFP3. In brief, HEK293 cells transiently expressing each receptor (cRXFP1 and cRXFP3) were treated with 30 μl serum-free medium containing cRLN3cm or pcDNAcm (0.001–10 μl) for 6 h, and the receptor-activated cAMP/PKA pathways and calcium mobilization were then monitored by pGL3-CRE-luciferase and pGL3-NFAT-RE-luciferase reporter systems, respectively. HEK293 cells expressing empty pcDNA3.1 (+) were used as a negative control.
To compare the functional difference between chicken RLN3 and human RLN3, recombinant human RLN3 (rhRLN3, 10^–12 to 10^–7 M, 6 h) was used to treat HEK293 cells expressing cRXFP1 or cRXFP3, respectively, and its potency in activating cRXFP1 and cRXFP3 was also evaluated.
To verify whether chicken RLN3 can activate RXFP1 or RXFP3, a cRLN3-conditioned medium (cRLN3cm, 0.001–10 μl) was used to treat HEK293 cells expressing cRXFP1/cRXFP3. Receptor activation was examined by pGL3-CRE-luciferase and pGL3-NFAT-RE-luciferase reporter systems established in our previous studies ([Liu et al., 2019]).

C[C@]12CCC(=O)C[C@@H]1CC[C@@H]1[C@@H]2CC[C@]2(C)[C@@H](O)CC[C@@H]12 [DHT, dihydrotestosterone]
effect of DHT on cRLN3 mRNA expression [1]: could not affect the expression of cRLN3 mRNA

CC(=O)[C@H]1CC[C@H]2[C@@H]3CCC4=CC(=O)CC[C@]4(C)[C@H]3CC[C@]12C [P4, progesterone]
effect of P4 on cRLN3 mRNA expression ([2]; progesterone 100 nM, 4 h/24 h, qPCR): could not affect the expression of cRLN3 mRNA

recombinant human relaxin 3 (rhRLN3) (ligand)
EC50 of activation, Ca2+ pathway (pGL3-NFAT-RE-luciferase reporter) in HEK293 cells expressing cRXFP1; rhRLN3 10^-12 to 10^-7 M, 6 h [3]: 21.1 nM
EC50 of activation, cAMP/PKA pathway (pGL3-CRE-luciferase reporter) in HEK293 cells expressing cRXFP1; rhRLN3 10^-12 to 10^-7 M, 6 h [3]: 2.68 nM
EC50 of inhibition of forskolin-stimulated luciferase activity, cAMP/PKA pathway (pGL3-CRE-luciferase reporter) in HEK293 cells expressing cRXFP3; rhRLN3 10^-12 to 10^-7 M, 6 h [4]: 41.5 nM

corticotropin-releasing hormone [CRH]
effect of CRH on cRLN3 mRNA expression, time course ([2]; CRH 10 nM, 4 h and 24 h, qPCR, fold vs control): significantly increase the expression of cRLN3 mRNA in a time-dependent manner
effect of CRH on cRLN3 mRNA expression, dose response ([2]; CRH 0.1, 1, 10 nM, 24 h, qPCR, N = 4): could increase the expression level of cRLN3 mRNA in a dose-dependent manner; also recorded: potently stimulates the expression of cRLN3 in a dose- and time-dependent manner
stimulation of cRLN3 mRNA expression, CRH compared with GnRH ([2]; CRH 0.1–10 nM, 24 h vs GnRH 1–100 nM, 4 h): the stimulation effect of CRH was higher than that of GnRH
regulation of CART, GnRH compared with CRH (CART): equal potency

insulin-like peptide 3 [INSL3]
RXFP2 downstream signaling [5]: cAMP level increase and thymidine incorporation

chicken relaxin 3 (cRLN3), in conditioned medium of HEK293 cells transfected with the cRLN3 expression plasmid (ligand)
potency of cRLN3cm in activating cRXFP1 relative to cRXFP3, pGL3-CRE-luciferase reporter in HEK293 cells [6]: > 10 fold

chicken relaxin 3 [cRLN3]
potency on cRXFP1 compared with cRXFP3 (in words) (cRXFP1; HEK293 cells expressing cRXFP1 or cRXFP3): cRXFP1 showed a higher binding potency with cRLN3 than cRXFP3
potency in activating cRXFP1 relative to cRXFP3 (cRXFP1; fold more potent on cRXFP1 than on cRXFP3, cRLN3cm, HEK293 cells): at least 10 fold

Chicken gonadotropin-releasing hormone (QHWSYGLQPG; Gonadoliberin-1; UniProt P37042 24-33, looked up) [GnRH, synthesized using solid-phase Fmoc chemistry (GL Biochem, Shanghai, China)]
effect of GnRH on cRLN3 mRNA expression, 4 h ([2]; GnRH 10 nM, 4 h, qPCR, fold vs control): slightly increase the expression of cRLN3 mRNA
effect of GnRH on cRLN3 mRNA expression, 24 h ([2]; GnRH 10 nM, 24 h, qPCR, fold vs control): not able to further regulate the expression of cRLN3 mRNA
effect of GnRH on cRLN3 mRNA expression, dose response ([2]; GnRH 1, 10, 100 nM, 4 h, qPCR, N = 4): could increase the expression level of cRLN3 mRNA in a dose-dependent manner; also recorded: could only weakly stimulate the mRNA expression of cRLN3
regulation of CART, GnRH compared with CRH (CART): equal potency

C[C@]12CC[C@@H]3c4ccc(O)cc4CC[C@H]3[C@@H]1CC[C@@H]2O [E2, 17β-estradiol]
effect of E2 on cRLN3 mRNA expression, 4 h ([2]; 17β-estradiol 100 nM, 4 h, qPCR): could increase the expression level of cRLN3 mRNA; also recorded: found to increase the expression of cRLN3
effect of E2 on cRLN3 mRNA expression, 24 h ([2]; 17β-estradiol 100 nM, 24 h, qPCR): could not regulate the mRNA expression of cRLN3
